In US8906825B2, “Herbicidal compositions comprising 4-amino-3-chloro-5-fluoro-6-(4-chloro-2-fluoro-3-methoxyphenyl) pyridine-2-carboxylic acid or a derivative thereof and triazolopyrimidine sulfonamides” (Dow AgroSciences LLC, priority 2012, dated 2014):

Tests used:
Format in all cases: in vivo
[1] = test system: CYPIR (Cyperus iria L., rice flatsedge); assay: Postemergence foliar-applied herbicidal mixtures, direct seeded rice, greenhouse (Example I)
Excerpt: (§1) Seeds or nutlets of the desired test plant species were planted in a soil matrix prepared by mixing a loam or sandy loam soil (e.g., 28.6 percent silt, 18.8 percent clay, and 52.6 percent sand, with a pH of about 5.8 and an organic matter content of about 1.8 percent) and calcareous grit in an 80 to 20 ratio. The soil matrix was contained in plastic pots with a volume of 1 quart and a surface area of 83.6 square centimeters (cm^2). When required to ensure good germination and healthy plants, a fungicide treatment and/or other chemical or physical treatment was applied. The plants were grown for 8-22 days in a greenhouse with an approximate 14 h photoperiod which was maintained at about 29° C. during the day and about 26° C. during the night. Nutrients (Peters Excel® 15-5-15 5-Ca 2-Mg and iron chelate) were applied in the irrigation solution as needed and water was added on a regular basis. Supplemental lighting was provided with overhead metal halide 1000-Watt lamps as necessary. The plants were employed for testing when they reached the first through fourth true leaf stage.
(§2) Treatments consisted of the acid or esters of 4-amino-3-chloro-5-fluoro-6-(4-chloro-2-fluoro-3-methoxy-phenyl)pyridine-2-carboxylic acid (Compound A), each formulated as an SC (suspension concentrate), and various herbicidal components alone and in combination. Forms of compound A were applied on an acid equivalent basis.
(§3) Other herbicidal components were applied on an active ingredient basis and included acetolactate synthase (ALS)-inhibiting herbicides (sulfonamide chemical class) penoxsulam formulated as Grasp® SC, diclosulam formulated as Strongarm®, and cloransulam-methyl formulated as FirstRate®, flumetsulam formulated as Flumetsulam WG, and metosulam formulated as Eclipse®.
(§4) Treatment requirements were calculated based upon the rates being tested, the concentration of active ingredient or acid equivalent in the formulation, and a 12 mL application volume at a rate of 187 L/ha.
(§5) For treatments comprised of formulated compounds, measured amounts of compounds were placed individually in 25 mL glass vials and diluted in a volume of 1.25% (v/v) Agri-Dex® crop oil concentrated to obtain 12× stock solutions. […] Application solutions were prepared by adding an appropriate amount of each stock solution (e.g., 1 mL) and diluted to the appropriate final concentrations with the addition of 10 mL of an aqueous mixture of 1.25% (v/v) crop oil concentrate so that the final spray solutions contained 1.25+/−0.05% (v/v) crop oil concentrate.
(§6) All stock solutions and applications solutions were visually inspected for compound compatibility prior to application. Spray solutions were applied to the plant material with an overhead Mandel track sprayer equipped with an 8002E nozzle calibrated to deliver 187 L/ha over an application area of 0.503 m^2 at a spray height of 18 to 20 inches (46 to 50 cm) above average plant canopy height. Control plants were sprayed in the same manner with the solvent blank.
(§7) The treated plants and control plants were placed in a greenhouse as described above and watered by sub-irrigation to prevent wash-off of the test compounds. After approximately 3 weeks, the condition of the test plants as compared with that of the untreated plants was determined visually and scored on a scale of 0 to 100 percent where 0 corresponds to no injury or growth inhibition and 100 corresponds to complete kill.
(§8) Colby's equation was used to determine the herbicidal effects expected from the mixtures (Colby, S. R. 1967. Calculation of the synergistic and antagonistic response of herbicide combinations. Weeds 15:20-22.).
(§9) The following equation was used to calculate the expected activity of mixtures containing two active ingredients, A and B: Expected=A+B−(A×B/100)

[2] = test system: BRAPP (Brachiaria platyphylla (Griseb.) Nash, broadleaf signalgrass); assay: as above; details: Flumetsulam 6.25 gai/ha
Excerpt: as §1, §2, §3, §4, §5, §6, §7, §8, §9

[3] = test system: CYPDI (Cyperus difformis L., smallflower umbrella sedge); assay: In-water applied herbicidal mixtures, transplanted paddy rice, greenhouse (Example II)
Experimental: (§10) Weed seeds or nutlets of the desired test plant species were planted in puddled soil (mud) prepared by mixing a shredded, non-sterilized mineral soil (50.5 percent silt, 25.5 percent clay, and 24 percent sand, with a pH of about 7.6 and an organic matter content of about 2.9 percent) and water at a 1:1 volumetric ratio. The prepared mud was dispensed in 365 mL aliquots into 16-ounce (oz.) non-perforated plastic pots with a surface area of 86.59 square centimeters (cm^2) leaving a headspace of 3 centimeters in each pot. Mud was allowed to dry overnight prior to planting or transplanting. Rice seeds were planted in Sun Gro MetroMix® 306 planting mixture, which typically has a pH of 6.0 to 6.8 and an organic matter content of about 30 percent, in plastic plug trays. Seedlings at the second or third leaf stage of growth were transplanted into 840 mL of mud contained in 32-oz. non-perforated plastic pots with a surface area of 86.59 cm^2 4 days prior to herbicide application. The paddy was created by filling the headspace of the pots with 2.5 to 3 cm of water. When required to ensure good germination and healthy plants, a fungicide treatment and/or other chemical or physical treatment was applied. The plants were grown for 4-22 days in a greenhouse with an approximate 14 h photoperiod which was maintained at about 29′C during the day and about 26° C. during the night. Nutrients were added as Osmocote® (19:6:12, N:P:K+minor nutrients) at 2 g per 16-oz. pot and 4 g per 32-oz. pot. Water was added on a regular basis to maintain the paddy flood, and supplemental lighting was provided with overhead metal halide 1000-Watt lamps as necessary. The plants were employed for testing when they reached the first through fourth true leaf stage.
(§11) Treatments consisted of the acid or esters of 4-amino-3-chloro-5-fluoro-6-(4-chloro-2-fluoro-3-methoxy-phenyl)pyridine-2-carboxylic acid (compound A) each formulated as an SC and various herbicidal components alone and in combination. Forms of compound A were applied on an acid equivalent basis.
(§12) Other herbicidal components were applied on an active ingredient basis and included acetolactate synthase (ALS)-inhibiting herbicides (sulfonamide chemical class) penoxsulam formulated as Grasp® SC (GF-443), diclosulam formulated as Strongarm®, and cloransulam-methyl formulated as FirstRate®.
(§13) Treatment requirements for each compound or herbicidal component were calculated based upon the rates being tested, the concentration of active ingredient or acid equivalent in the formulation, an application volume of 2 mL per component per pot, and an application area of 86.59 cm^2 per pot.
(§14) For formulated compounds, a measured amount was placed in an individual 100 or 200 mL glass vial and was dissolved in a volume of 1.25% (v/v) Agri-Dex® crop oil concentrate to obtain each application solution.
(§15) Applications were made by injecting with a pipetter appropriate amounts of the application solutions, individually and sequentially, into the aqueous layer of the paddy. Control plants were treated in the same manner with the solvent blank. Applications were made so that all treated plant material received the same concentrations of acetone and crop oil concentrate.
as §7, with “water was added as needed” for “watered by sub-irrigation”, “maintain a paddy flood.” for “prevent wash-off of the test compounds.”, “weeks” for “weeks,”
as §8, §9

[4] = test system: ECHCG (Echinochloa crusgalli (L.) Beauv., barnyardgrass); assay: as above; details: Cloransulam-methyl 17.5 gai/ha
Experimental: as §10, §11, §12, §13, §14, §15
as §7, with “water was added as needed” for “watered by sub-irrigation”, “maintain a paddy flood.” for “prevent wash-off of the test compounds.”, “weeks” for “weeks,”
as §8, §9

[5] = test system: FIMMI (Fimbristylis miliacea (L.) Vahl, globe fringerush); assay: as above
Experimental: as §10, §11, §12, §13, §14, §15
as §7, with “water was added as needed” for “watered by sub-irrigation”, “maintain a paddy flood.” for “prevent wash-off of the test compounds.”, “weeks” for “weeks,”
as §8, §9

[6] = test system: DIGSA (Digitaria sanguinalis (L.) Scop., large crabgrass); assay: Postemergence foliar-applied herbicidal mixtures, direct seeded rice, greenhouse (Example I); details: Cloransulam-methyl 2.19 gai/ha
Excerpt: as §1, §2, §3, §4, §5, §6, §7, §8, §9

[7] = test system: LEFCH (Leptochloa chinensis (L.) Nees, Chinese sprangletop); assay: as above
Excerpt: as §1, §2, §3, §4, §5, §6, §7, §8, §9

[8] = test system: CIRAR (Cirsium arvense (L.) Scop., Canada thistle); assay: Postemergence foliar-applied herbicidal mixtures, cereal crops, greenhouse (Example III); details: Pyroxsulam 3.75 gai/ha, visual score 0 to 100 percent after 20-22 days
Experimental: Seeds of the desired test plant species were planted in Sun Gro MetroMix® 306 planting mixture, which typically has a pH of 6.0 to 6.8 and an organic matter content of about 30 percent, in plastic pots with a surface area of 103.2 square centimeters (cm^2). […] The plants were grown for 7-36 days in a greenhouse with an approximate 14 hour photoperiod which was maintained at about 18° C. during the day and about 17° C. during the night. Nutrients and water were added on a regular basis and supplemental lighting was provided with overhead metal halide 1000-Watt lamps as necessary. The plants were employed for testing when they reached the second or third true leaf stage.
Treatments consisted of the benzyl ester of 4-amino-3-chloro-5-fluoro-6-(4-chloro-2-fluoro-3-methoxy-phenyl)pyridine-2-carboxylic acid (Compound A), formulated as an SC, a second cereal herbicide alone and then both in combination.
Other herbicidal components were applied on an active ingredient basis and included acetolactate synthase (ALS)-inhibiting herbicides (sulfonamide chemical class) florasulam formulated as Derby® and pyroxsulam formulated as PowerFlex®. A measured aliquot of benzyl ester of 4-amino-3-chloro-5-fluoro-6-(4-chloro-2-fluoro-3-methoxy-phenyl)pyridine-2-carboxylic acid (Compound A) was placed in 25 milliliter (mL) glass vials and diluted in a volume of 1.25% (v/v) AgriDex® crop oil concentrated to obtain a stock solution. Compound requirements are based upon a 12 mL application volume at a rate of 187 liters per hectare (L/ha). […] Formulated compounds were applied to the plant material with an overhead Mandel track sprayer equipped with an 8002E nozzle calibrated to deliver 187 L/ha over an application area of 0.503 square meters (m^2) at a spray height of 18 inches (46 cm) above average plant canopy. Control plants were sprayed in the same manner with the solvent blank.
as §7, with “20-22 days,” for “approximately 3 weeks,”, “control” for “untreated”, “injury” for “injury or growth inhibition”
as §8, §9

Question: With Cc1ccn2nc(S(=O)(=O)Nc3c(F)cccc3F)nc2n1 [Flumetsulam, N-(2,6-difluorophenyl)-5-methyl[1,2,4]triazolo[1,5-a]pyrimidine-2-sulfonamide, reference compound] as the compound, how does the “Visual Weed Control (%) - 22 DAA CYPIR Obs” value ([1]; Flumetsulam 6.25 gai/ha) read?
Answer: 20%

Question: What about the “Visual Weed Control (%) - 22 DAA CYPIR Obs” value ([1]; Flumetsulam 12.5 gai/ha) of the same compound?
Answer: 55%

Question: What about the “Visual Weed Control (%) - 22 DAA CYPIR Obs” value ([1]; Flumetsulam 25 gai/ha) of the same compound?
Answer: 30%

Question: And the “Visual Weed Control (%) - 22 DAA BRAPP Obs” value [2]?
Answer: 30%

Question: With CCOc1nc(F)cc2nc(S(=O)(=O)Nc3c(Cl)cccc3C(=O)OC)nn12 [Cloransulam-methyl, methyl 3-chloro-2-[[(5-ethoxy-7-fluoro[1,2,4]triazolo[1,5-c]pyrimidin-2-yl)sulfonyl]amino]benzoate, reference compound] as the compound, how does the “Visual Weed Control (%) - 21 DAA CYPDI Obs” value ([3]; Cloransulam-methyl 17.5 gai/ha) read?
Answer: 40%

Question: And the “Visual Weed Control (%) - 21 DAA CYPDI Obs” value ([3]; Cloransulam-methyl 35 gai/ha)?
Answer: 80%

Question: And the “Visual Weed Control (%) - 22 DAA ECHCG Obs” value [4]?
Answer: 50%

Question: And the “Visual Weed Control (%) - 21 DAA FIMMI Obs” value ([5]; Cloransulam-methyl 17.5 gai/ha, Table 14)?
Answer: 40%

Question: And the “Visual Weed Control (%) - 21 DAA FIMMI Obs” value ([5]; Cloransulam-methyl 17.5 gai/ha, Table 15)?
Answer: 40%

Question: And the “Visual Weed Control (%) - 21 DAA FIMMI Obs” value ([5]; Cloransulam-methyl 35 gai/ha, Table 14)?
Answer: 60%

Question: What about the “Visual Weed Control (%) - 21 DAA FIMMI Obs” value ([5]; Cloransulam-methyl 35 gai/ha, Table 15) of the same compound?
Answer: 60%

Question: And the “Visual Weed Control (%) - 20 DAA CYPIR Obs” value ([1]; Cloransulam-methyl 4.38 gai/ha)?
Answer: 70%

Question: And the “Visual Weed Control (%) - 20 DAA CYPIR Obs” value ([1]; Cloransulam-methyl 8.75 gai/ha)?
Answer: 85%

Question: What about the “Visual Weed Control (%) - 20 DAA DIGSA Obs” value [6] of the same compound?
Answer: 10%

Question: What about the “Visual Weed Control (%) - 20 DAA LEFCH Obs” value ([7]; Cloransulam-methyl 2.19 gai/ha, Table 7) of the same compound?
Answer: 0%

Question: And the “Visual Weed Control (%) - 20 DAA LEFCH Obs” value ([7]; Cloransulam-methyl 4.38 gai/ha, Table 6)?
Answer: 0%

Question: And the “Visual Weed Control (%) - 20 DAA LEFCH Obs” value ([7]; Cloransulam-methyl 4.38 gai/ha, Table 7)?
Answer: 0%

Question: And the “Visual Weed Control (%) - 20 DAA LEFCH Obs” value ([7]; Cloransulam-methyl 8.75 gai/ha, Table 6)?
Answer: 0%

Question: How did the “CIRAR Obs” value [8] turn out when COc1cc(OC)n2nc(NS(=O)(=O)c3c(C(F)(F)F)ccnc3OC)nc2n1 [Pyroxsulam, N-(5,7-dimethoxy[1,2,4]triazolo[1,5-a]pyrimidin-2-yl)-2-methoxy-4-(trifluoromethyl)-3-pyridinesulfonamide, reference compound] was run?
Answer: 60%
